In paper PMC3198402 (PLoS ONE, 2011):
Where no end group is shown, it is not given here.

What was measured:
Assay in all cases: biochemical
Type in all cases: binding
A*2601 = A*2601 (Homo sapiens, UniProt P04439, A114D/A173T/A270S/D101N/D185E/E277Q/E87N/F33Y/G231S/I121R/I218V/K168Q/L180W/L300P/L318F/P208A/P217A/Q86R/Q94H/R138Q/S129P/T187R/T323A/T345S/V100A/V358M)
B*5801 = B*5801 (Homo sapiens, UniProt P01889, A329T/C349S/D201E/D98Y/E176V/E187L/E204Q/E69T/G107R/I218V/I90N/K202T/L105A/L119I/N104I/N87E/Q89R/Q94S/R106L/R155S/R180L/R86G/S101N/S121R/S35A/S48A/T118I/V127L/V306I/V36M/Y140S/Y91M)
B*3501 = B*3501 (Homo sapiens, UniProt P01889, A329T/A93T/A95T/C349S/D201E/D98Y/E176V/E187L/E204Q/E69T/I218V/K202T/L119I/Q94N/R155S/R180L/S121R/S35A/S48A/T118I/V127L/V306I/V36M/Y140S/Y91F)
HLA-B*07:02 = HLA-B*07:02 (Homo sapiens, UniProt P01889)
A*0101 = A*0101 (Homo sapiens, UniProt P04439, A114D/A174V/A182V/D101N/D185E/E176A/E190D/L180R/Q94H/R68K/S129P/T187R/V100A/V91M/W191G)
B*1501 = B*1501 (Homo sapiens, UniProt P01889, A329T/A93T/A95T/C349S/D201E/D98Y/E187L/E204Q/E69M/E70A/K202T/N87E/Q94N/R155S/R180W/S121R/S35A/S48A/V306I/V36M/Y140S/Y91S)

EVHTWTEQY [Peptide 14632] showed a Kd (A*2601) of 0.002 µM.
Compound EAPEMPALY [YFV A26 15918] has a Kd (A*2601) of 0.594 µM.
With EYTDYMPSM [Peptide 14629] the Kd (A*2601) was 1.82 µM.
YTIDCDGSI [YFV A26 15923] was tested, and the Kd (A*2601) was 0.251 µM.
In the case of ESWIVDRQW [YFV [B58] 16010], the Kd (B*5801) is reported as 0.123 µM.
KAVHADMGY [Peptide 14688] showed a Kd (B*5801) of 0.03 µM and a Kd (B*3501) of 0.302 µM.
In the case of ILRNPGFAL [Peptide 14713], the Kd (HLA-B*07:02) is reported as 0.002 µM.
In the case of `CC[C@H](C)[C@H](NC(=O)[C@H](Cc1c[nH]cn1)NC(=O)[C@H](CC(N)=O)NC(=O)[C@H](Cc1c[nH]cn1)NC(=O)[C@H](CO)NC(=O)[C@@H](N)CO)C(=O)N1CCC[C@H]1C(=O)NCC(=O)N[C@@H](Cc1ccc(O)cc1)C(=O)O` [YFV [A1/A26] 16027], the Kd (A*0101) is reported as 0.847 µM and the Kd (A*2601) is reported as 0.136 µM.
Compound VALSEQGEF [YFV B58 16005] has a Kd (B*5801) of 0.286 µM.
With `CC[C@H](C)[C@H](NC(=O)[C@H](CCC(N)=O)NC(=O)[C@@H](N)CCCCN)C(=O)N[C@@H](C)C(=O)N[C@@H](CC(N)=O)C(=O)N[C@@H](CCC(=O)O)C(=O)N[C@@H](CC(C)C)C(=O)N[C@@H](CC(N)=O)C(=O)N[C@@H](Cc1ccc(O)cc1)C(=O)O` [Peptide 14707] the Kd (B*1501) was 0.113 µM.
AIDLDPVVY [Peptide 14591] showed a Kd (A*0101) of 0.025 µM.
NRDGDSYYY [YFV A1 15858] gave a Kd (A*0101) of 1.92 µM.
Work on EAMDTISVF [YFV A26 15915] yielded a Kd (B*3501) of 0.001 µM and a Kd (A*2601) of 0.007 µM.
Compound `CC[C@H](C)[C@H](NC(=O)[C@@H](N)CCC(=O)O)C(=O)N[C@@H](CO)C(=O)NCC(=O)N[C@@H](CO)C(=O)N[C@@H](CO)C(=O)N[C@@H](C)C(=O)N[C@@H](CCCNC(=N)N)C(=O)N[C@@H](Cc1ccc(O)cc1)C(=O)O` [YFV [A1/A26/B62]] has a Kd (A*0101) of 0.095 µM and a Kd (A*2601) of 0.003 µM.
With DVVPMVTQM [Peptide 14637] the Kd (A*2601) was 0.002 µM.
KLEGKIVQY [Peptide 14705] showed a Kd (B*1501) of 0.126 µM.
Work on QPKPGTRMV [Peptide 14716] yielded a Kd (HLA-B*07:02) of 0.014 µM.
Work on KAYAQMWSL [Peptide 14691] yielded a Kd (B*5801) of 0.01 µM.
For SVKKDLISY [Peptide 14634], the Kd (A*2601) was 0.031 µM.
RERLSRMAI [Peptide 14712] gave a Kd (HLA-B*07:02) of 0.444 µM.
For `N=C(N)NCCC[C@H](NC(=O)CNC(=O)[C@@H]1CCCN1C(=O)[C@@H](N)CO)C(=O)N[C@@H](CCCCN)C(=O)N[C@@H](CC(N)=O)C(=O)NCC(=O)N[C@@H](CO)C(=O)N[C@@H](Cc1ccccc1)C(=O)O` [Peptide 15932], the Kd (HLA-B*07:02) was 0.027 µM.
`CC[C@H](C)[C@H](NC(=O)[C@H](CC(N)=O)NC(=O)[C@H](C)NC(=O)[C@@H](N)CCSC)C(=O)N[C@@H](Cc1ccccc1)C(=O)N[C@@H](CCCNC(=N)N)C(=O)NCC(=O)N[C@@H](CO)C(=O)N[C@@H](Cc1ccc(O)cc1)C(=O)O` [Peptide 14582] gave a Kd (B*3501) of 0.829 µM.
With NVHTWTEQY [Peptide 14625] the Kd (A*2601) was 0.039 µM.
In the case of KTWGKNLVF [YFV B58 16008], the Kd (B*5801) is reported as 0.019 µM.
YVIRDLAAM [YFV A26 15917] gave a Kd (B*3501) of 0.001 µM and a Kd (A*2601) of 0.001 µM.
Work on MVRRGVRSL [Peptide 15926] yielded a Kd (HLA-B*07:02) of 0.003 µM.
SQHNYRPGY [Peptide 14699] was tested, and the Kd (B*1501) was 0.022 µM.
AQEDDQYVF [Peptide 14702] showed a Kd (B*1501) of 0.081 µM.
Compound KSAHGSPTF [YFV B58 16009] has a Kd (B*5801) of 0.036 µM.
Work on MPRSIGGPV [Peptide 15931] yielded a Kd (HLA-B*07:02) of 0.005 µM.
ICSAVPSHW [Peptide 14686] was tested, and the Kd (B*5801) was 0.394 µM.
With RTWHYCGSY [YFV [B62] 16018] the Kd (B*1501) was 0.068 µM.
Compound VTRGAVLMY [Peptide 14633] has a Kd (A*2601) of 0.241 µM.
Compound LVLAVGPAY [YFV A26/B62 16034] has a Kd (B*3501) of 0.001 µM and a Kd (A*2601) of 5.12 µM.
SIQDNQVAY [YFV B62 16022] showed a Kd (B*1501) of 0.217 µM.
Compound MAGCGYLMF [YFV A24 15904] has a Kd (B*3501) of 0.002 µM.
With SQEAEFTGY [YFV B62 16020] the Kd (B*1501) was 0.094 µM.
Work on AQAVMEMTY [YFV B62 16021] yielded a Kd (B*1501) of 0.056 µM.
For HSEEGSRAY [YFV A1 15860], the Kd (B*3501) was 0.003 µM and the Kd (A*0101) was 0.014 µM.
